Reference: paper PMC10882719 (Frontiers in Neuroscience, 2024)

Assays:
[1] = molecular target: T1, 5HT2C receptor (Homo sapiens, UniProt P28335); assay: GPCRmax screen, agonist mode, 5HT2C; format: cell-based; details: for % Agonist Activity: HTR2C
T1 construct: β-galactosidase enzyme fragment (enzyme fragment complementation reporter); host or cells: PathHunter cell lines
T1 sequence (P28335 33-458): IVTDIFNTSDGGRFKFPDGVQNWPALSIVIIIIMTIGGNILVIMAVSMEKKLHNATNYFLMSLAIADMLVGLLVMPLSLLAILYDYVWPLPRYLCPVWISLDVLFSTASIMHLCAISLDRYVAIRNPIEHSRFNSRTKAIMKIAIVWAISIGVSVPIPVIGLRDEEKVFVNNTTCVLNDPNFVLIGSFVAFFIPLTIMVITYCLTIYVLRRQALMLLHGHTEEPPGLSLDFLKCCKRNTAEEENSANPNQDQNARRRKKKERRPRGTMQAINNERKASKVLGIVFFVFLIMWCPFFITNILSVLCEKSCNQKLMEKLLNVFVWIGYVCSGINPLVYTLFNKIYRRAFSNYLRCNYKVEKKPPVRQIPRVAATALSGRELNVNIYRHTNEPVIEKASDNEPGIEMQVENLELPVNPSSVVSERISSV
Description: (§1) Studies were performed at Eurofins DiscoverX Corporation (Fremont, CA) using the GPCRmax assay according to the manufacturer’s protocols. […] Activity greater than 30% typically indicates agonist activity and inhibition greater than 50% indicates antagonist activity. This assay uses enzyme fragment complementation with […] as the functional reporter. When a GPCR is activated, […] is recruited and the reporter is detectable. GPCRmax offers a high-throughput screen of 168 GPCRs for agonist or antagonist activity. Briefly, PathHunter cell lines were propagated, seeded into 384-well microplates and incubated at 37°C. […] Microplates were read following signal generation with a PerkinElmer Envision™ instrument for chemiluminescent signal detection. Compound activity was analyzed using CBIS data analysis suite (ChemInnovation, CA) to determine raw values (RLU). For agonist mode assay, percentage activity was calculated using the following formula: % Activity =100% × (mean RLU of test sample - mean RLU of vehicle control) / (mean MAX control ligand - mean RLU of vehicle control). For antagonist mode assay, percentage inhibition was calculated using the following formula: % Inhibition =100% × (1 - (mean RLU of test sample - mean RLU of vehicle control) / (mean RLU of EC80 control - mean RLU of vehicle control)).

[2] = molecular target: T2, 5HT5A (Homo sapiens, UniProt P47898); assay: GPCRmax screen, agonist mode, 5HT5A; format: cell-based; details: for % Agonist Activity: HTR5A
T2 construct: β-galactosidase enzyme fragment (enzyme fragment complementation reporter); host or cells: PathHunter cell lines
T2 sequence (P47898 whole entry, the tested form may be a part): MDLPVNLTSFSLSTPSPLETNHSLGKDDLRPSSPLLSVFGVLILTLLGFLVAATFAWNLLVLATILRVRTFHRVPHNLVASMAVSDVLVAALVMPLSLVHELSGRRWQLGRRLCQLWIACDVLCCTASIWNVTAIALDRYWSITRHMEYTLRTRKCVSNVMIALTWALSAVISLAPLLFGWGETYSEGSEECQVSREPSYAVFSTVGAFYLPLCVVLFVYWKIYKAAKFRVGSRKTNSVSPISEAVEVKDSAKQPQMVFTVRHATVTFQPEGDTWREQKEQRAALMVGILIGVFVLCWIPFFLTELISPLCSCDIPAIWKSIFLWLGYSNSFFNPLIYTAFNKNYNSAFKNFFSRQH
Description: as §1

[3] = molecular target: T3, DA uptake (DAT), rat brain synaptosomes (Rattus norvegicus, UniProt P23977); assay: Uptake inhibition assay, [3H]DA, rat brain synaptosomes; format: biochemical
T3 construct: Rat brain synaptosomes were isolated from Sprague Dawley rats (200-250 g); from tissue; host or cells: rat brain synaptosomes (Sprague Dawley)
T3 sequence (P23977 whole entry): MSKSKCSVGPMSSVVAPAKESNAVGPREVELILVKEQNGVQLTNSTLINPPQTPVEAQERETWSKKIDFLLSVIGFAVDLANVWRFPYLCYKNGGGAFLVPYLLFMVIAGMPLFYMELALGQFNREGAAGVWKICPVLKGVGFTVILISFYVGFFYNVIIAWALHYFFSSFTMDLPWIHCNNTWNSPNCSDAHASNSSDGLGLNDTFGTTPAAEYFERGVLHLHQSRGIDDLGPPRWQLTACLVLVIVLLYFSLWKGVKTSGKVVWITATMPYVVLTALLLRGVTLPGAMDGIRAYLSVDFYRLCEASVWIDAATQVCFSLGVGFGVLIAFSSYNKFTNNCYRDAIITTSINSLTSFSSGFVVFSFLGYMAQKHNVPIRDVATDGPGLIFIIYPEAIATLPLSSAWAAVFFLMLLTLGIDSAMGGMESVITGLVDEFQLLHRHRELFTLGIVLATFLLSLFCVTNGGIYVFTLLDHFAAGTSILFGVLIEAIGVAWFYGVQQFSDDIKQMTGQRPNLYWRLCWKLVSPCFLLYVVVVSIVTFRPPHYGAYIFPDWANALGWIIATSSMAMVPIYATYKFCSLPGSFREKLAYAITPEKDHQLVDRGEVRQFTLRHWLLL

[4] = molecular target: T4, DA release (DAT), rat brain synaptosomes (Rattus norvegicus, UniProt P23977); assay: Release assay, [3H]DA, superfused rat brain synaptosomes; format: biochemical
T4 construct: Rat brain synaptosomes were isolated from Sprague Dawley rats (200-250 g); from tissue; host or cells: rat brain synaptosomes (Sprague Dawley)
T4 sequence (P23977 whole entry, the tested form may be a part): as the sequence (P23977 whole entry) above
Description: (§2) Test compounds and synaptosomes were prepared as described for uptake inhibition assays. Synaptosomes treated with [^3H] 5-HT, [^3H] DA or [^3H] NE were loaded onto filter chambers containing GF/C filters and placed in a superfusion system. Oxygenated Krebs buffer was perfused through the chambers at a rate of 1.5 mL/min at 35°C using either an 8-channel or a 12-channel peristaltic pump. Trapped air bubbles were removed from the filters prior to collecting fractions to ensure an even flow over the synaptosomal bed. After a superfusion period of 45 min, 2 basal fractions were collected followed by 6 fractions following the addition of the test drug. […] After the addition of scintillation cocktail, radioactivity was counted using a Wallac® TriLux 1,450 MicroBeta counter. […] Scintillation cocktail was added, and the filters counted to determine residual radioactivity. Drug-evoked release of neurotransmitter was calculated by subtracting the average of the two basal fractions (collected prior to the drug addition), from the four fractions collected in the presence of drug. The drug-evoked release was then expressed as a percentage of the basal release. Potassium-evoked release was calculated by subtracting the average of two fractions collected prior to the addition of high KCl buffer from that in the two fractions following addition of high KCl buffer. […]

[5] = molecular target: T5, NE uptake (NET), rat brain synaptosomes (Rattus norvegicus, UniProt Q63380); assay: Uptake inhibition assay, [3H]NE, rat brain synaptosomes; format: biochemical
T5 construct: Rat brain synaptosomes were isolated from Sprague Dawley rats (200-250 g); from tissue; host or cells: rat brain synaptosomes (Sprague Dawley)
T5 sequence (Q63380 1-617): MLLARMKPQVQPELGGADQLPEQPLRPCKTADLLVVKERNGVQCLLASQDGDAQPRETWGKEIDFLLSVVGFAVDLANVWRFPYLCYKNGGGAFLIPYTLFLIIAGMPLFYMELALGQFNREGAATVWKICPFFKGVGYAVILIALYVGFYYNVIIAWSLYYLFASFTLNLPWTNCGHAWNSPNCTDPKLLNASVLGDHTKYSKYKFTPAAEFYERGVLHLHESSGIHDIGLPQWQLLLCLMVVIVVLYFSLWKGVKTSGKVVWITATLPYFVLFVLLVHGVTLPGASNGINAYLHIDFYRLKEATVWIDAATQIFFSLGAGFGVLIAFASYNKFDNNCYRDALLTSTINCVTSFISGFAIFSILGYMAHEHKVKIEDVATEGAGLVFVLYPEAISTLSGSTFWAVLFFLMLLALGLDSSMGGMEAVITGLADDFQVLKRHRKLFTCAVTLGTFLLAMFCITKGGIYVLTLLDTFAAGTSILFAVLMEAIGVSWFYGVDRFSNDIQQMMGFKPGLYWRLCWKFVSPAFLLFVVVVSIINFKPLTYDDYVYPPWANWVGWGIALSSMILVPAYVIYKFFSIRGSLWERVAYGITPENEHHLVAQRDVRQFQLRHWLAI

[6] = test system: immobility in the forced swim test; parameters: method as in Warner-Schmidt et al., 2022; details: rats, ref Warner-Schmidt et al., 2022, cited from earlier work
[7] = molecular target: T6, 5HT release (SERT), rat brain synaptosomes (Rattus norvegicus, UniProt P31652); assay: Release assay, [3H]5-HT, superfused rat brain synaptosomes; format: biochemical
T6 construct: Rat brain synaptosomes were isolated from Sprague Dawley rats (200-250 g); from tissue; host or cells: rat brain synaptosomes (Sprague Dawley)
T6 sequence (P31652 whole entry, the tested form may be a part): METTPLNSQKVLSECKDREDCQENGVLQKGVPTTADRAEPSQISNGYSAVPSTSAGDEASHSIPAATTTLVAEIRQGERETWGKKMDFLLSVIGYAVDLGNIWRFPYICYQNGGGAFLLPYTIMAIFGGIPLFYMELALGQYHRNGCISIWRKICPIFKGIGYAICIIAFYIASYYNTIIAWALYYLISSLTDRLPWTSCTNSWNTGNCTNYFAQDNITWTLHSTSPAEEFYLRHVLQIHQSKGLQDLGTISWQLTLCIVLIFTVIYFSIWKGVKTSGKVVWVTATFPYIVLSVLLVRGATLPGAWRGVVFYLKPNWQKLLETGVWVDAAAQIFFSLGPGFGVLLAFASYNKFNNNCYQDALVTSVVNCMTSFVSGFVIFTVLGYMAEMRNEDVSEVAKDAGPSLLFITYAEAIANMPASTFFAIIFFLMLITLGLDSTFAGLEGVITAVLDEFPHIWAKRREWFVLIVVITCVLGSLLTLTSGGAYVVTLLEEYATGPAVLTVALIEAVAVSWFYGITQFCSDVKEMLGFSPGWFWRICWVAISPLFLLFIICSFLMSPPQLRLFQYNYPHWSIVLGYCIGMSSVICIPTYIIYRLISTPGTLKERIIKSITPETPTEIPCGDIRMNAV
Description: as §2

[8] = molecular target: T7, NE release (NET), rat brain synaptosomes (Rattus norvegicus, UniProt Q63380); assay: Release assay, [3H]NE, superfused rat brain synaptosomes; format: biochemical
T7 construct: Rat brain synaptosomes were isolated from Sprague Dawley rats (200-250 g); from tissue; host or cells: rat brain synaptosomes (Sprague Dawley)
T7 sequence (Q63380 1-617): as the sequence (Q63380 1-617) above
Description: as §2

[9] = molecular target: T8, 5HT reuptake (SERT), rat brain synaptosomes (Rattus norvegicus, UniProt P31652); assay: Uptake inhibition assay, [3H]5-HT, rat brain synaptosomes; format: biochemical
T8 construct: Rat brain synaptosomes were isolated from Sprague Dawley rats (200-250 g); from tissue; host or cells: rat brain synaptosomes (Sprague Dawley)
T8 sequence (P31652 whole entry): as the sequence (P31652 whole entry, the tested form may be a part) above

[10] = test system: PTSD patients (CAPS-5); details: open-label, 14 PTSD patients; ref Jones et al., 2023; cited from earlier work

CNC(C)Cc1ccc2c(c1)OCO2 (stereo not drawn) [MDMA, 3,4-Methylenedioxy methamphetamine, reference compound]
% agonist activity, 5HT2C ([1]; 10 μM, cutoff 30% activity): 28.0% | % Agonist Activity ([1]; 1 uM): 15.9% | % Agonist Activity ([1]; 10 uM): 28% | % Agonist Activity ([2]; 1 uM): 7.2% | % Agonist Activity ([2]; 10 uM): 0.8%

CNC(C)C(=O)c1ccc2c(c1)OCO2 (stereo not drawn) [methylone]
IC50 [3]: 2.3 µM | % Agonist Activity ([1]; 1 uM): 1.4% | % Agonist Activity ([1]; 10 uM): 3.7% | EC50 [4]: 4.79 µM | Amount of DA released compared to MDMA ([4]; rat brain synaptosomes, Figure 1C): Less DA was released | IC50 [5]: 0.13 µM | Reduction in immobility in the forced swim test ([6]; 30 min after a single human equivalent dose of 100–150 mg): 95–98% | Duration of reduction in immobility post-dose ([6]; single dose): at least 72 h | EC50 [7]: 0.62 µM | EC50 [8]: 0.33 µM | % agonist activity, 5HT5A (greatest activity detected) ([2]; 1 or 10 μM, threshold 30% activity): 13.9% | % Agonist Activity ([2]; 1 uM): 13.6% | % Agonist Activity ([2]; 10 uM): 13.9% | IC50 [9]: 0.43 µM | Adverse events [10]: no significant adverse events | Reduction in CAPS-5 [10]: 36.2 point
